The text below walks through data of US20070196421A1, “Soft tissue implants and drug combination compositions, and use thereof” (priority 2005, published 2007).

The conditions of data set [1]: cited from earlier work; for solubility in alcohol / ethanol (in words): alcohol or ethanol.
Data set [2] deals with immunosuppressive agents, such as cyclosporine. Kind of data set: potency of immunosuppressive agents (enhancer effect).
Data set [3] deals with carrageenan-induced paw edema. Kind of data set: Rat carrageenan-induced paw edema model: paw swelling. The class given is in vivo. The following applies: local injection in paw at T-1 hr, Tmax = 6 hrs. The method, then: (§1) A dose-range finding study was performed to determine the anti-inflammatory activity of various ratios of methyl prednisolone acetate and amoxapine in a rat carrageenan-induced paw edema model. […] The molar ratio of methyl prednisolone acetate to amoxapine ranged from 1:1 to 1:300, using total doses of methyl prednisolone acetate of 0.01, 0.03 or 0.1 mg/kg.
(§2) The test agent (a combination of methyl prednisolone acetate and amoxapine), vehicle control, or reference agents (methyl prednisolone acetate, amoxapine, or Depo-Medrol®) were administered in the left hind foot pad of rats. After 60 minutes, paw edema was induced by injection of 100 μl of 1% carrageenan in the same foot pad. The paw volume was measured with a water displacement plethysmometer immediately prior to test agent injection (T−1h), at the time of carrageenan injection (T0h), and at T6h. Animals were euthanized by carbon dioxide inhalation. Paw tissue samples were collected and flash frozen in liquid nitrogen. Samples were assayed for TNF-α by enzyme-linked immunoassay (ELISA).

The test system of another data set is TNF-α. Kind of data set: Rat carrageenan-induced paw edema model: TNF-α in paw tissue by ELISA. The class given is in vivo. As for the experimental part:
as §1, §2

For data set [4], the system named is K. pneumoniae ATCC13883 C238. Kind of data set: MIC by microtitre broth dilution. It is filed as cell-based. The following applies: Gram−, wt, Mueller Hinton broth, 37° C., 24 h. As for the experimental part:
(§3) MIC assays were conducted essentially as described by Amsterdam, D. 1996, “Susceptibility testing of antimicrobials in liquid media”, p. 52-111, in Loman, V., ed. Antibiotics in laboratory medicine, 4th ed. Williams and Wilkins, Baltimore, Md.

The subject of the next data set is S. epidermidis C621. In words: MIC by microtitre broth dilution. The class given is cell-based. The following applies: Gram+, wt, Mueller Hinton broth, 37° C., 24 h. As for the experimental part: as §3
A general note: In broth dilution the organism is exposed to a series of concentrations in liquid medium.

Another data set concerns E. coli UB1005 C498. In words: MIC by microtitre broth dilution. The conditions noted are these: Gram−, wt, Mueller Hinton broth, 37° C., 24 h. It is filed as cell-based. As for the experimental part: as §3
Another data set concerns S. pyogenes C721. Kind of data set: MIC by microtitre broth dilution. The following applies: Gram+, wt, Todd Hewitt broth, 37° C., 24 h. The class given is cell-based. The method, then: as §3
In the next data set the test system is S. aureus ATCC25923 C622. Kind of data set: MIC by microtitre broth dilution. The conditions noted are these: Gram+, wt, Mueller Hinton broth, 37° C., 24 h. The class given is cell-based. As for the experimental part: as §3
Data set [5] concerns P. aeruginosa PAE/K799 H187. Kind of data set: MIC by microtitre broth dilution. It is filed as cell-based. The following applies: Gram−, wt, Mueller Hinton broth, 37° C., 24 h. As for the experimental part: as §3
Data set [6] concerns multiple drug-resistant strains of C. glabrata. Kind of data set: antifungal activity against C. glabrata. The class given is cell-based. The following applies: antifungal agent used in combination with the manganese compound.

Molecules are shown by their SMILES. Structures can show the parent of a compound that is named as a salt.

With `NC(=O)c1ncn([C@@H]2O[C@H](CO)[C@@H](O)[C@H]2O)n1` [Ribavirin, ribavirin], the “solubility in alcohol / ethanol (in words)” value in data set [1] is “slightly soluble”.
Take `CN(C)C(=O)C(CCN1CCC(O)(c2ccc(Cl)cc2)CC1)(c1ccccc1)c1ccccc1` [Loperamide]: the “effect on the potency of immunosuppressive agents” value (shortened to “effect on the potency”) in [2] is reported as “increase the potency”.
For the compound `CC(=O)OCC(=O)[C@@]1(O)CC[C@H]2[C@@H]3C[C@H](C)C4=CC(=O)C=C[C@]4(C)[C@H]3[C@@H](O)C[C@@]21C` [MePredAc, methyl prednisolone acetate], the “Edema ± SEM” value in data set [3] (0.01 mg/kg) was found to be 32.6 ± 5.3%; in data set [3] (0.03 mg/kg), 26.2 ± 7.0%; in data set [3] (0.1 mg/kg), 12.2 ± 1.8%. Moreover, the figures for the “TNF-α ± SEM” value in the data set on TNF-α (0.01 mg/kg), in the data set on TNF-α (0.03 mg/kg) and in the data set on TNF-α (0.1 mg/kg) were 35.9 ± 11.3 pg/g, 19.2 ± 3.1 pg/g and 28.0 ± 6.0 pg/g, respectively.
`NC(=O)NO` [hydroxyurea]: the Minimum inhibitory concentration entry was “N” in data set [4]; “N” in the data set with S. epidermidis C621; “N” in the data set with E. coli UB1005 C498; 10^−4 Molar in the data set on S. pyogenes C721; “N” in the data set with S. aureus ATCC25923 C622; 10^−4 Molar in [5].
Consider `CN(C/C=C/C#CC(C)(C)C)Cc1cccc2ccccc12.Cl` [terbinafine, terbinafine hydrochloride], for which the “enhancement of antifungal activity by the manganese compound” value (from here on “enhancement of antifungal activity”) in data set [6] is given as “enhances”.
On the same count and under the same terms, for `CCC(C)n1ncn(-c2ccc(N3CCN(c4ccc(OC[C@H]5CO[C@](Cn6cncn6)(c6ccc(Cl)cc6Cl)O5)cc4)CC3)cc2)c1=O` (mixture of isomers) [itraconazole] the value was “enhances”.
As to `Oc1cc(Cl)ccc1Oc1ccc(Cl)cc1Cl` [triclosan, Triclosan], in data set [2], the “effect on the potency” value was “increases the potency”.
With `O=c1[nH]cc(F)c(=O)[nH]1` [5-fluorouracil, 5-FU], the Minimum inhibitory concentration in data set [4] is recorded as 10^−6 Molar; in the data set with S. epidermidis C621, 10^−7 Molar; in the data set on E. coli UB1005 C498, 10^−6 Molar; in the data set on S. pyogenes C721, 10^−4 Molar; in the data set with S. aureus ATCC25923 C622 it was 10^−7 Molar; in data set [5] it was 10^−5 Molar.
For the compound `Sc1ncc2[nH]cnc2n1` [2-mercaptopurine], the Minimum inhibitory concentration result (in data set [4]; with S. epidermidis C621; in the data set on E. coli UB1005 C498; in the data set on S. pyogenes C721; in the data set with S. aureus ATCC25923 C622; in [5]) was “N” in each case.
Regarding `CC[C@@]1(O)C(=O)OCc2c1cc1n(c2=O)Cc2cc3ccccc3nc2-1` [camptothecin, camptothecins], the Minimum inhibitory concentration entry in data set [4] was “N”; in the data set on S. epidermidis C621, 10^−4 Molar; in the data set with E. coli UB1005 C498 it was “N”; with S. pyogenes C721 it was “N”; in the data set with S. aureus ATCC25923 C622, “N”; in [5], “N”.
Turning to `COc1cc([C@@H]2c3cc4c(cc3[C@@H](O[C@@H]3O[C@@H]5CO[C@@H](C)O[C@H]5[C@H](O)[C@H]3O)[C@H]3COC(=O)[C@H]23)OCO4)cc(OC)c1O` [etoposide], the Minimum inhibitory concentration in data set [4] is 10^−5 Molar; in the data set with S. epidermidis C621, 10^−6 Molar; in the data set with E. coli UB1005 C498, “N”; in the data set on S. pyogenes C721, 10^−5 Molar; in the data set on S. aureus ATCC25923 C622, 10^−5 Molar; in data set [5] it was “N”.
Turning to `CNCCCC12CCC(c3ccccc31)c1ccccc12` [maprotiline, Maprotiline], the “effect on the potency” value in data set [2] is recorded as “increases the potency”.
Take `CC[C@H](C)C[C@H](C)CCCCCCCCC(=O)N[C@H]1C[C@@H](O)[C@@H](NCCN)NC(=O)[C@@H]2[C@@H](O)CCN2C(=O)[C@H]([C@H](O)CCN)NC(=O)[C@H]([C@H](O)[C@@H](O)c2ccc(O)cc2)NC(=O)[C@@H]2C[C@@H](O)CN2C(=O)[C@H]([C@@H](C)O)NC1=O` [caspofungin]: in data set [6], the “enhancement of antifungal activity” value is reported as “enhances”.
For the compound `CN(Cc1cnc2nc(N)nc(N)c2n1)c1ccc(C(=O)N[C@@H](CCC(=O)O)C(=O)O)cc1` [methotrexate], the Minimum inhibitory concentration in data set [4] is 10^−6 Molar; in the data set on S. epidermidis C621, “N”; in the data set on E. coli UB1005 C498 it was “N”; with S. pyogenes C721, 10^−6 Molar; with S. aureus ATCC25923 C622 it was 10^−5 Molar; in data set [5] it was “N”.
As for `Sc1ncnc2nc[nH]c12` [6-mercaptopurine], the Minimum inhibitory concentration entry (in [4]; in the data set on S. epidermidis C621; in the data set with E. coli UB1005 C498; in the data set on S. pyogenes C721; in the data set with S. aureus ATCC25923 C622; in [5]) was “N” in each case.
For `OC(Cn1cncn1)(Cn1cncn1)c1ccc(F)cc1F` [fluconazole], the “enhancement of antifungal activity” value in data set [6] is “enhances”.
In the case of `Nc1ccn([C@@H]2O[C@H](CO)[C@@H](O)[C@@H]2O)c(=O)n1` [Cytarabine, cytarabine], the Minimum inhibitory concentration result (in data set [4]; with S. epidermidis C621; with E. coli UB1005 C498; in the data set on S. pyogenes C721; with S. aureus ATCC25923 C622; in [5]) was “N” throughout.
Regarding `Nc1ccc(/N=N\c2ccccc2)c(N)n1` [phenazopyridine-HCl], in [1], the “solubility in water (in words)” value is “slightly soluble”.
Regarding `Nc1ncnc2c1ccn2[C@@H]1O[C@H](CO)[C@@H](O)[C@H]1O` [tubercidin], the Minimum inhibitory concentration result (in data set [4]; with S. epidermidis C621; in the data set on E. coli UB1005 C498; with S. pyogenes C721; in the data set on S. aureus ATCC25923 C622; in [5]) was “N” in each case.
As to `COc1cccc2c1C(=O)c1c(O)c3c(c(O)c1C2=O)C[C@@](O)(C(=O)CO)C[C@@H]3O[C@H]1C[C@H](N)[C@H](O)[C@H](C)O1` [doxorubicin], the Minimum inhibitory concentration in [4] is reported as 10^−6 Molar; in the data set with S. epidermidis C621 it was 10^−6 Molar; in the data set with E. coli UB1005 C498, 10^−4 Molar; with S. pyogenes C721 it was 10^−7 Molar; with S. aureus ATCC25923 C622, 10^−5 Molar; in data set [5], 10^−5 Molar.
On to `N.N.[Cl][Pt][Cl]` [cisplatin], for which the Minimum inhibitory concentration result is on record as “N” in data set [4]; “N” in the data set on S. epidermidis C621; “N” in the data set on E. coli UB1005 C498; “N” in the data set with S. pyogenes C721; “N” in the data set on S. aureus ATCC25923 C622; 10^−4 Molar in data set [5].
`CCN(CC)C(C)CN1c2ccccc2Sc2ccccc21` (stereo not drawn) [Ethopropazine, ethopropazine]: the “effect on the potency” value in [2] is “increases the potency”.
Turning to `O=C1c2c(O)ccc(O)c2C(=O)c2c(NCCNCCO)ccc(NCCNCCO)c21` [mitoxantrone], the Minimum inhibitory concentration in data set [4] is 10^−6 Molar; in the data set on S. epidermidis C621, 10^−5 Molar; in the data set on E. coli UB1005 C498, 10^−5 Molar; in the data set on S. pyogenes C721, 10^−6 Molar; with S. aureus ATCC25923 C622, 10^−5 Molar; in data set [5], 10^−5 Molar.
With `Nc1ccc(/N=N/c2ccccc2)c(N)n1` [Phenazopyridine base, phenazopyridine], in data set [1], the “solubility in alcohol / ethanol (in words)” value was “slightly soluble” and the “solubility in water (in words)” value is given as “slightly soluble”.
